Results: paper PMC6474902, “Examination of novel 4-aminoquinoline derivatives designed and synthesized by a hybrid pharmacophore approach to enhance their anticancer activities” (Scientific Reports, 2019)
Entries after “also recorded” stand apart in the source; their conditions may differ.

Tests used:
Type in all cases: cell-based, human
184B5 = assay: SRB antiproliferative/antigrowth assay, non-cancer cells; conditions: Homo sapiens, 184B5, 48 h, read-out: GI50 184B5
Method in brief: (§1)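 Cells seeded 24 h before exposure to seven concentrations (100 µM to 0.0064 µM) for 48 h at 37 °C. Growth by TCA fixation and SRB staining, absorbance 515–564 nm, relative to time-zero and untreated controls; GI50 from variable-slope sigmoidal fit, reported as greater/less than range limits when not reached.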

MCF10A [1] = assay: as above
Method in brief: as §1

NCI-60 cancer panel = NCI-60 cancer panel screening; conditions: screening carried out by the USA National Cancer Institute
Procedure: Therefore, we examined its effects on several cellular and molecular biological aspects to gain a better understanding about its mode of function. […]
compound 13 show s effective grow th inhibition on a w ide range of cancers. Screening of compound 13 with the NCI-60 cancer panel was carried out by the USA National Cancer Institute.
(1 picture or pasted object on this page, not shown here)

MCF7 cells [2] = assay: LysoTracker Red staining of lysosomal volume; conditions: 5 μM, 48 h
Procedure: (§2) Since the structure of compound 13 contains the main scaffold of CQ, we examined whether cells treated with compound 13 also results an increase in the lysosomal volume.
Figure 7 Lysosomal volumes are increased in MCF7 cells treated with compound 13. Lysomes were visualized by treating MCF7 cells with lysoTracker Red for 48 h in the absence (Sham) or presence of 5 μM compound 13. The nuclei of cells in rows a and c were visualized by staining with DRAQ5. Note that rows a, c and e are enlarged images.
(§3) LysoTracker Red sDND-99 staining was carried out as recommended by the manufacturer (Molecular Probes, Eugene, OR). Briefly, cells grown on a cover slip were incubated in 50 nM LysoTracker Red DND-99 in serum-free RPMI-1640 medium for 30 min and then rinsed once with serum-free medium. The cells were washed three times with ice-cold medium, incubated in fresh medium for 45 min at 37 °C, and then washed once with fresh medium. Subsequently, the cells were examined by fluorescence microscopy using two filters (for green and red images) sequentially. Merging the two color images was done using Northern Eclipse software.

MCF10A [3] = assay: LysoTracker Red staining of lysosomal volume, non-cancer cells; conditions: 5 μM, 48 h
Procedure: as §2, §3
Sham treated Compound 13 (5 μ M), 48 h
(VR23) in non- cancer MCF10A, in contrast to cancer cells (MCF7, HeLa). […]

MCF7 cells [4] = assay: Cell killing by flow cytometry, asynchronous cells; conditions: 2.7 μM, 48 h
Procedure: Asynchronous MCF7 cells were incubated for 48 h in the absence (Sham control) or presence of compound 13 at 2.7 or 8.0 µM.
Cells (2.0 × 10^6) were harvested by centrifugation at 1,000 rpm on a bench-top centrifuge for 5 min, followed by fixation with ice-cold ethanol (70%) for 30 min to overnight at −20 °C[13]. The ethanol was then removed by centrifugation, and cells were resuspended in 1 × PBS solution, followed by centrifuge. The cell pellet was than stained with propidium iodide (PI) master mix (100 μg/mL RNase A, 100 μg/mL PI, 0.3% Nonidet P-40 and 0.1% sodium citrate in distilled water) for 30 min at 37 °C. DNA content was measured using a Beckmann Coulter Cytomics FC500 (Beckman Coulter, Fullerton, CA), and the proportion of cell populations in G0/G1, S, and G2/M phases of cell cycle was calculated on the basis of DNA distribution histograms using CXP software.

HeLa = assay: Combination with bortezomib, cell death; conditions: 48 h post-treatment; BTZ 6 nM, compound 13 0.75 µM, alone or combined

O=[N+]([O-])c1ccc(S(=O)(=O)N2CCN(c3ccnc4cc(Cl)ccc34)CC2)c([N+](=O)[O-])c1 [Compound 13, 7-Chloro-4-(4-(2,4-dinitrophenylsulfonyl)piperazin-1-yl)quinoline]
GI50 (184B5): 9 ± 0.1 µM | GI50 (MCF10A [1]; Homo sapiens, MCF-10A, 48 h, read-out: GI50 MCF10A): 12.3 ± 0.1 µM | higher concentration required for the same GI50 against non-cancer than cancer cells (MCF10A [1]; MDA-MB468 vs MCF10A): up to 17.6 fold | growth inhibition in NCI-60 cancer panel (in words) (NCI-60 cancer panel): effective on many different human cancers | lysosomal volume (MCF7 cells [2]): substantial increase in lysosomal volume | lysosomal volume (MCF10A [3]): does not increase; also recorded: did not show the same degree of increase in lysosomal volume | cell killing (MCF7 cells [4]): effectively killed MCF7 cells | cell death (HeLa): neither 6 nM BTZ nor 0.75 µM of compound 13 resulted in substantial HeLa cell death
